Assay results: patent US11208412B2 (DAEGU-GYEONGBUK MEDICAL INNOVATION FOUNDATION, priority 2017, dated 2021)

Legend:
Test in all cases: Kinase selectivity, DiscoverX scanMAX Kinase assay panel (% control)
Format in all cases: binding
[1] = biological target: T1, kinases of the scanMAX Kinase assay panel (Homo sapiens, UniProt Q04771); conditions: ACVR1; 1 uM
T1 construct: purchased DiscoverX Co. (contract measurement) scanMAX Kinase assay panel
T1 sequence (Q04771 21-509): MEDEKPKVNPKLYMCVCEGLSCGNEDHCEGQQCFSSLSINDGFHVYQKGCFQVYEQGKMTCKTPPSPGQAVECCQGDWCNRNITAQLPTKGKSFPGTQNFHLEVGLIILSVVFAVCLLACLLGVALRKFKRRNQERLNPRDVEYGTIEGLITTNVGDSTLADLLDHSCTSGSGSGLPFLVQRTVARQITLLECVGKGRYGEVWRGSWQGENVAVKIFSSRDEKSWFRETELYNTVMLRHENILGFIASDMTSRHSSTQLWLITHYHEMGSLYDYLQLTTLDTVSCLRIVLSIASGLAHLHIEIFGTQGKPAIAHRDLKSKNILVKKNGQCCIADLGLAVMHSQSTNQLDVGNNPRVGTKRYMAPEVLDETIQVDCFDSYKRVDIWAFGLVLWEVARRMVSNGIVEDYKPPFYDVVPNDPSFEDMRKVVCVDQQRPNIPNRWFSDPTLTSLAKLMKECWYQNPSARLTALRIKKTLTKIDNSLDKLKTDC
Method in brief: (§1)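 A 1 uM DMSO solution of compound was applied across the panel kinases, and results were expressed as % control relative to DMSO (100%) and a positive control (0%).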

[2] = biological target: T2, kinases of the scanMAX Kinase assay panel (Homo sapiens, UniProt Q07002); conditions: PCTK3; 1 uM
T2 construct: purchased DiscoverX Co. (contract measurement) scanMAX Kinase assay panel
T2 sequence (Q07002 whole entry): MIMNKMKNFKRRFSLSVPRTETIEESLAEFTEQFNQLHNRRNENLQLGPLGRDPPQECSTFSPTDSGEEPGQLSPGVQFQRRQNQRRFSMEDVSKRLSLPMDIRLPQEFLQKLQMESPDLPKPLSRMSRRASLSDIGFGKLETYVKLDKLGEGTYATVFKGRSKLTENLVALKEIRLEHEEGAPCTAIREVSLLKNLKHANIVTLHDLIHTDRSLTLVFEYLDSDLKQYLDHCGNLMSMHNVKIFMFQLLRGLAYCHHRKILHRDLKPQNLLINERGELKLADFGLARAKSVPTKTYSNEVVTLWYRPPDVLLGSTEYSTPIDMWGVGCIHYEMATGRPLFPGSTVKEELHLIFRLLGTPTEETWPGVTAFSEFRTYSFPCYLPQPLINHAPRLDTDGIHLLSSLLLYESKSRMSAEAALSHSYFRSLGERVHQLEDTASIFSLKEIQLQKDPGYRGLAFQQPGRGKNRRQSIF
Method in brief: as §1

[3] = biological target: T3, kinases of the scanMAX Kinase assay panel (Homo sapiens, UniProt Q9NRP7); conditions: kinase STK36; 1 uM in DMSO
T3 construct: purchased DiscoverX Co. (contract measurement) scanMAX Kinase assay panel
T3 sequence (Q9NRP7 1-1315): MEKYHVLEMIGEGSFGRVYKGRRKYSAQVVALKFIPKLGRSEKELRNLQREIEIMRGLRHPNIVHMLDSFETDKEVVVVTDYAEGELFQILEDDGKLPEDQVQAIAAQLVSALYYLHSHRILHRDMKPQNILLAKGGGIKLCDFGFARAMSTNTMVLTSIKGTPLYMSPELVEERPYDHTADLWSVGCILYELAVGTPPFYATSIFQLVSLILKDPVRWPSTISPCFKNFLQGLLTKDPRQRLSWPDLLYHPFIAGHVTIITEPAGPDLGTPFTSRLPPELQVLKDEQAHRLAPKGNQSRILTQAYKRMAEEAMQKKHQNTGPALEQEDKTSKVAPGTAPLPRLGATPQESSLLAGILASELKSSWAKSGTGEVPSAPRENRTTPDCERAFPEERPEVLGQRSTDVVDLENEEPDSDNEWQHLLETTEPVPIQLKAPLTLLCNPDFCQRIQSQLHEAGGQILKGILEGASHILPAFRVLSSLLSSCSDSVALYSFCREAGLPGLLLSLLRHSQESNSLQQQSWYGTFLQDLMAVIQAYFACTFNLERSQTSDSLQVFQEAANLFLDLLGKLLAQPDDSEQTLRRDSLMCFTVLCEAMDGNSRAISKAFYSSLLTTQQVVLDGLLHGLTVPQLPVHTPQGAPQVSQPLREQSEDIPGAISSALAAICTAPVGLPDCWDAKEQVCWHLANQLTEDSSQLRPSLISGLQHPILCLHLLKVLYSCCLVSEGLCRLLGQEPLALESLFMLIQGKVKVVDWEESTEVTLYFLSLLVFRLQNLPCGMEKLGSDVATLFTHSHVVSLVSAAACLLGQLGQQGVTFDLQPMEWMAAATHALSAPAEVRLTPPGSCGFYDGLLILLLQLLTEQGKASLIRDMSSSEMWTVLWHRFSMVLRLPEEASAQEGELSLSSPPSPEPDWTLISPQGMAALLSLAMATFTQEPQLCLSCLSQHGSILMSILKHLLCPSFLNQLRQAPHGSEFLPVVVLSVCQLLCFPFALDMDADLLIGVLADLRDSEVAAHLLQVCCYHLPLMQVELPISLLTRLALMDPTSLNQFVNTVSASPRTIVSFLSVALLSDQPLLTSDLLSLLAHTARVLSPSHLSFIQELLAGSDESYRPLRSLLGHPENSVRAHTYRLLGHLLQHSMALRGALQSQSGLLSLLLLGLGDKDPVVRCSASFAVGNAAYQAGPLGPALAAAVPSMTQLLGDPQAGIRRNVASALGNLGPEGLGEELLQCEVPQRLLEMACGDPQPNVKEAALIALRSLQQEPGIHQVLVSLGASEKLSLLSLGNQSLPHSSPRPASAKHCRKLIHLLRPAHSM
Method in brief: as §1

CNc1nc(Nc2ccc(C(=O)N3CCOCC3)cc2OC)nc2[nH]cc(C#N)c12 [Example 1, 2-((2-methoxy-4-(morpholine-4-carbonyl)phenyl)amino)-4-(methylamino)-7H-pyrrolo[2,3-d]pyrimidine-5-carbonitrile] showed a remaining binding at 1 µM [1] of 97%, a remaining binding at 1 µM [2] of 96% and a remaining binding at 1 µM [3] of 97%.
In the case of CC1(Nc2nc(Nc3cnn([C@H]4CCN(C5COC5)C[C@@H]4F)c3Cl)nc3[nH]cc(C#N)c23)CC1 [Example 52, 2-((5-chloro-1-((3S,4S)-3-fluoro-1-(oxetane-3-yl)piperidine-4-yl)-1H-pyrazole-4-yl)amino)((1-methylcyclopropyl)amino)-7H-pyrrolo[2,3-d]pyrimidine-5-carbonitrile], the remaining binding at 1 µM [1] is reported as 73%, the remaining binding at 1 µM [2] is reported as 81% and the remaining binding at 1 µM [3] is reported as 85%.
In the case of CCNc1nc(Nc2ccc(C(=O)N3CCC(N4CCOCC4)CC3)cc2OC)nc2[nH]cc(C(F)(F)F)c12 [Example 104, (4-((4-(ethylamino)-5-(trifluoromethyl)-7H-pyrrolo[2,3-d]pyrimidine-2-yl)amino)-3-methoxyphenyl)(4-morpholinopiperidine-1-yl)methanone], the remaining binding at 1 µM [1] is reported as 100%, the remaining binding at 1 µM [2] is reported as 94% and the remaining binding at 1 µM [3] is reported as 100%.
